The test system of test [1] is wt-REC-1 mantle cell lymphoma cells. As to the kind of experiment: Cell proliferation assay wt-REC-1 (ATPlite, 72 hours). Format: cell-based. The settings on record: 72 h; read-out: IC50 wt-REC-1. Here is the method:
Results of the BTK […] binding affinity are shown in Table 1 below. • IC50 BTK […]: […] wt-REC-1 mantle cell lymphoma cells were purchased from American Type Culture Collection via Synthego Corporation (cat. no. CRL-3004, ATCC). […] Luminescence was recorded on an Envision multimode reader. The cell signal at the start of incubation was recorded separately in order to distinguish between cell population growth and cell death. In addition, maximum growth was determined by incubation of a duplicate without compound in the presence of 0.3% DMSO. Percentage growth was used as the main y-axis signal. IC50s were fitted by non-linear regression using IDBS XLfitTM5 using a 4-parameter logistic curve, yielding a maximum signal, minimum signal, hill-parameter and IC50. Results of the wt-REC-1 proliferation are shown in Table 1 below. • IC50 wt-REC-1: […]
(Cellular ATP, detected with luciferase, serves as a proxy for viable cell number.)

The next test has as its system REC-1 T474I cell lines. Description: Cell proliferation assay REC-1 BTK T474I knock-in cells (ATPlite, 72 hours). The test is classed as cell-based. The settings on record: Homo sapiens, Rec1; 72 hours; read-out: IC50 REC-1 T474I. On the procedure: Cell proliferation assay Generation of BTK […] knock-in cell lines wt-REC-1 cell lines expressing mutant BTK were created at Synthego Corporation. Cell lines expressing BTK […] was generated via CRISPR/Cas9. Monoclonal REC-1 […] cell lines were obtained by single cell cloning. The mutation status of all cell lines was confirmed via sequencing. […] Luminescence was recorded on an Envision multimode reader. The cell signal at the start of incubation was recorded separately in order to distinguish between cell population growth and cell death. In addition, maximum growth was determined by incubation of a duplicate without compound in the presence of 0.3% DMSO. Percentage growth was used as the main y-axis signal.

The target of test [2] is full-length wt-BTK enzyme (Homo sapiens (Human), UniProt Q06187). As to the kind of experiment: Biochemical kinase assay wt-BTK (IMAP). Here is the method: Biochemical kinase assay wt-BTK To determine the inhibitory activity of compounds on wt-BTK enzyme activity, the IMAP® assay (Molecular Devices) was used. […] After pre-incubation of 1 hour in the dark at room temperature, fluorescein-labeled MBP-derived substrate peptide (Molecular Devices, cat. no. RP 7123) was added, followed by ATP to start the reaction. Final enzyme concentration was 1.2 nM, final substrate concentration 50 nM, and final ATP concentration was 4 μM. The reaction was allowed to proceed for 2 hours at room temperature in the dark. The reaction was stopped by quenching with IMAP progressive binding solution according to the protocol of the manufacturer (Molecular Devices). Fluorescein polarization was measured on an Envision multimode reader (Perkin Elmer, Waltham, MA, U.S.A.). […] Results of the wt-BTK binding affinity are shown in Table 1 below. • IC50 wt-BTK: […]
Chain of full-length wt-BTK enzyme (Q06187 whole entry): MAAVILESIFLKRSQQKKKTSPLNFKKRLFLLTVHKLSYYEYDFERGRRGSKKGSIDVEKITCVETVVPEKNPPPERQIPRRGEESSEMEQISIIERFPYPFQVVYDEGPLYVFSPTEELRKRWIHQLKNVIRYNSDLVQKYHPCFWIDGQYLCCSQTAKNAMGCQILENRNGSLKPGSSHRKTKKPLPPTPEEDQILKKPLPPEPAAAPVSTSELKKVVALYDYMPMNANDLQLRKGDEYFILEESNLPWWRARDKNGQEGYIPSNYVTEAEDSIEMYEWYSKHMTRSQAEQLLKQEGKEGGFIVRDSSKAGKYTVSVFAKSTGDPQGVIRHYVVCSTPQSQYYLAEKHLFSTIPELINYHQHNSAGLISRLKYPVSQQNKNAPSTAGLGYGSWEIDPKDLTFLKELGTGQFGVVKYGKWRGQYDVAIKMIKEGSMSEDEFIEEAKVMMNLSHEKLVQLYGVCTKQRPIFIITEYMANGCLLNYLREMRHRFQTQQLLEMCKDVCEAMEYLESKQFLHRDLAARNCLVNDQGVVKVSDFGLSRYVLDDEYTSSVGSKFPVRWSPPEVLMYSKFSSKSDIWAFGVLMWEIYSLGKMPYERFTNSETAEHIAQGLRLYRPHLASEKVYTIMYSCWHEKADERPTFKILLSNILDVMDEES

In test [3] the target is full-length BTK C481S enzyme (Homo sapiens (Human), UniProt Q06187, C481S). Description: Biochemical kinase assay BTK C481S (IMAP). Here is the method:
Biochemical kinase assay BTK […] To determine the inhibitory activity of compounds on BTK C481S enzyme activity, the IMAP® assay (Molecular Devices) was used. […] After pre-incubation of 1 hour in the dark at room temperature, fluorescein-labeled MBP-derived substrate peptide (Molecular Devices, cat. no. RP 7123) was added, followed by ATP to start the reaction. Final enzyme concentration was 1.2 nM final substrate concentration 50 nM, and final ATP concentration was 7 μM. The reaction was allowed to proceed for 2 hours at room temperature in the dark. The reaction was stopped by quenching with IMAP progressive binding solution according to the protocol of the manufacturer (Molecular Devices). Fluorescein polarization was measured on an Envision multimode reader (Perkin Elmer, Waltham, MA, U.S.A.). IC50 were calculated using XLfitTM5 software (ID Business Solutions, Ltd., Surrey, U.K.). Results of the BTK […] binding affinity are shown in Table 1 below. • IC50 BTK […]: […]

Bounds are passed on as bounds.

The IC50 is the concentration at which inhibition is half-maximal.

Chain of full-length BTK C481S enzyme (Q06187 whole entry C481S): as the sequence (Q06187 whole entry) above, with C481S counted along it

For the compound `Nc1ncc2c3c1c(-c1ccc(C(=O)Nc4cc(C(F)(F)F)ccn4)cc1)nn3[C@@H]1CCC[C@H](C1)C(=O)NCCC/C=C/C2` [Example 84a], the IC50 in test [1] was 100 to 1000 nM; in the test on REC-1 T474I cell lines, 500 to 10000 nM; in test [2], 5 to 50 nM; in test [3] it was 5 to 50 nM.

Regarding `Nc1ncc2c3c1c(-c1ccc(C(=O)Nc4cc(C(F)(F)F)ccn4)cc1)nn3[C@@H]1CCC[C@H](C1)NC(=O)CNCCCC2` [Example 127], the concentration for half-maximal inhibition (IC50) in test [1] is 100 to 1000 nM; with REC-1 T474I cell lines, 500 to 10000 nM; in test [2] it was less than 5 nM; in test [3], less than 5 nM.

On to `Nc1ncc2c3c1c(-c1ccc(C(=O)Nc4cc(C(F)(F)F)ccn4)cc1)nn3[C@@H]1CCC[C@H](C1)C(=O)NCCCCCCCCC2` [Example 120], for which the IC50 in test [1] lay within 100 to 1000 nM; in the test on REC-1 T474I cell lines, 500 to 10000 nM; in test [2] it was 5 to 50 nM; in test [3], 5 to 50 nM.

With `COC1/C=C/c2cnc(N)c3c(-c4ccc(C(=O)Nc5cc(C(F)(F)F)ccn5)cc4)nn(c23)[C@@H]2CCC[C@H](C2)NC(=O)CCC1` (stereo partly shown) [Example 19], the IC50 in test [1] was 100 to 1000 nM; in the test with REC-1 T474I cell lines it was 500 to 10000 nM; in test [2], 5 to 50 nM; in test [3] it was 5 to 50 nM.

As to `Nc1ncc2n3c(nc(-c4ccc(C(=O)Nc5cc(C(F)(F)F)ccn5)cc4)c13)CCCNC(=O)CCCC=CC2` [Example 135], the IC50 is 1000 to 10000 nM in test [1], 5 to 50 nM in test [2] and 5 to 50 nM in test [3].

For the compound `C[C@@H]1CCn2nc(-c3ccc(C(=O)Nc4cc(C(F)(F)F)ccn4)cc3)c3c(N)ncc(c32)C/C=C\CCCC(=O)N1` [Example 109a], the IC50 lay in the range of 100 to 1000 nM in test [1], 500 to 10000 nM in the test on REC-1 T474I cell lines, 5 to 50 nM in test [2] and 5 to 50 nM in test [3].

Regarding `Nc1ncc2c3c1c(-c1ccc(C(=O)Nc4cc(C(F)(F)F)ccn4)cc1)nn3[C@@H]1CCC[C@H](C1)C(=O)NCCCCC2` [Example 116], the IC50 lay within 1000 to 10000 nM in test [1], 500 to 10000 nM in the test on REC-1 T474I cell lines, 50 to 500 nM in test [2] and 50 to 500 nM in test [3].

In the case of `Nc1ncc2c3c1c(-c1ccc(C(=O)Nc4cc(C(F)(F)F)ccn4)cc1)nn3[C@@H]1CCC[C@H](C1)NC(=O)CCNCCCC2` [Example 112], the IC50 in test [1] was 100 to 1000 nM; in the test on REC-1 T474I cell lines, 100 to 500 nM; in test [2], less than 5 nM; in test [3], less than 5 nM.

As for `C[C@@H]1CCn2nc(-c3ccc(C(=O)Nc4cc(C(F)(F)F)ccn4)cc3)c3c(N)ncc(c32)/C=C/C[S+]([O-])CC(=O)N1` (stereo partly shown) [Example 65], the IC50 in test [1] was 1000 to 10000 nM; in the test with REC-1 T474I cell lines, 500 to 10000 nM; in test [2], less than 5 nM; in test [3] it was less than 5 nM.

Turning to `Nc1ncc2c3c1c(-c1ccc(C(=O)Nc4ccccn4)cc1)nn3[C@@H]1CCC[C@H](C1)NC(=O)CCCCC2` [Example 124], the IC50 in test [1] lay within 100 to 1000 nM; with REC-1 T474I cell lines, 500 to 10000 nM; in test [2] it was 50 to 500 nM; in test [3], 50 to 500 nM.

`Nc1ncc2n3c(nc(-c4ccc(C(=O)Nc5cc(C(F)(F)F)ccn5)cc4)c13)[C@@H]1CCC[C@H](C1)NC(=O)CCC/C=C/C2` [Example 133a]: the half-inhibitory concentration (IC50) lay in the range of 100 to 1000 nM in test [1], 500 to 10000 nM in the test on REC-1 T474I cell lines, 5 to 50 nM in test [2] and 5 to 50 nM in test [3].

`Nc1ncc2c3c1c(-c1ccc(C(=O)Nc4ccccn4)cc1)nn3[C@@H]1CCC[C@H](C1)NC(=O)CCCCCC2` [Example 125]: the IC50 in test [1] was in the range of 100 to 1000 nM; in the test on REC-1 T474I cell lines, 500 to 10000 nM; in test [2], 5 to 50 nM; in test [3] it was 5 to 50 nM.

Turning to `C[C@@H]1CCn2nc(-c3ccc(C(=O)Nc4cc(C(F)(F)F)ccn4)cc3)c3c(N)ncc(c32)C/C=C/CCCC(=O)N1` [Example 109b], the 50% inhibitory concentration (IC50) in test [1] lay in the range of 1000 to 10000 nM; in the test on REC-1 T474I cell lines, 500 to 10000 nM; in test [2], 50 to 500 nM; in test [3] it was 50 to 500 nM.

As to `Nc1ncc2c3c1c(-c1ccc(C(=O)Nc4cc(C(F)(F)F)ccn4)cc1)nn3[C@@H]1CCC[C@H](C1)NC(=O)CCCNC/C=C\C2` [Example 108], the IC50 in test [1] was 100 to 1000 nM; in the test with REC-1 T474I cell lines, 500 to 10000 nM; in test [2] it was less than 5 nM; in test [3] it was less than 5 nM.

Consider `Nc1ncc2c3c1c(-c1ccc(C(=O)Nc4ccccn4)cc1)nn3[C@@H]1CCC[C@H](C1)NC(=O)COC/C=C/C2` [Example 104a], for which the IC50 in test [1] was 1000 to 10000 nM; in the test on REC-1 T474I cell lines, 500 to 10000 nM; in test [2] it was 50 to 500 nM; in test [3], 50 to 500 nM.

With `Nc1ncc2c3c1c(-c1ccc(C(=O)Nc4ccccn4)cc1)nn3[C@@H]1CCC[C@H](C1)NC(=O)CC/C=C\C2` [Example 96b], the IC50 in test [1] was 1000 to 10000 nM; with REC-1 T474I cell lines it was 500 to 10000 nM; in test [2], 5 to 50 nM; in test [3], 5 to 50 nM.

For `Nc1ncc2c3c1c(-c1ccc(C(=O)Nc4ccccn4)cc1)nn3[C@@H]1CCC[C@H](C1)C(=O)NCCCCCC/C=C\C2` [Example 93], the IC50 in test [1] is 100 to 1000 nM; in the test with REC-1 T474I cell lines it was 500 to 10000 nM; in test [2], 5 to 50 nM; in test [3], less than 5 nM.

For the compound `Nc1ncc2c3c1c(-c1ccc(C(=O)Nc4ccccn4)cc1)nn3[C@@H]1CCC[C@H](C1)C(=O)NCCCC/C=C/C2` [Example 87a], the IC50 in test [1] was in the range of 1000 to 10000 nM; with REC-1 T474I cell lines, 500 to 10000 nM; in test [2], 50 to 500 nM; in test [3], 50 to 500 nM.

As to `Nc1ncc2c3c1c(-c1ccc(C(=O)Nc4cc(C(F)(F)F)ccn4)cc1)nn3[C@@H]1CCC[C@H](C1)C(=O)NCCCC/C=C/C2` [Example 85a], the IC50 is 100 to 1000 nM in test [1], 500 to 10000 nM in the test with REC-1 T474I cell lines, 5 to 50 nM in test [2] and 50 to 500 nM in test [3].

In the case of `Nc1ncc2c3c1c(-c1ccc(C(=O)Nc4cc(C(F)(F)F)ccn4)cc1)nn3[C@@H]1CCC[C@H](C1)NC(=O)CCCCCC/C=C/C2` [Example 103a], the IC50 in test [1] is 100 to 1000 nM; with REC-1 T474I cell lines, 100 to 500 nM; in test [2] it was less than 5 nM; in test [3] it was less than 5 nM.

On to `Nc1ncc2c3c1c(-c1ccc(C(=O)Nc4ccccn4)cc1)nn3[C@@H]1CCC[C@H](C1)C(=O)NCCC/C=C\C2` [Example 90], for which the IC50 in test [1] lay in the range of 100 to 1000 nM; with REC-1 T474I cell lines, 500 to 10000 nM; in test [2] it was 5 to 50 nM; in test [3], 5 to 50 nM.

On to `Nc1ncc2c3c1c(-c1ccc(C(=O)Nc4cc(C(F)(F)F)ccn4)cc1)nn3[C@@H]1CCC[C@H](C1)NC(=O)CCC/C=C\C2` [Example 94b], for which the IC50 in test [1] was 100 to 1000 nM; in the test on REC-1 T474I cell lines it was 500 to 10000 nM; in test [2], less than 5 nM; in test [3], less than 5 nM.

As for `Nc1ncc2c3c1c(-c1ccc(C(=O)Nc4cc(C(F)(F)F)ccn4)cc1)nn3[C@@H]1CCC[C@H](C1)NC(=O)COC/C=C/C2` [Example 97a], the IC50 was in the range of 1000 to 10000 nM in test [1], 500 to 10000 nM in the test with REC-1 T474I cell lines, 5 to 50 nM in test [2] and 5 to 50 nM in test [3].

`Nc1ncc2n3c(nc(-c4ccc(C(=O)Nc5cc(C(F)(F)F)ccn5)cc4)c13)[C@@H]1CCC[C@H](C1)NC(=O)CC/C=C/C2` [Example 136]: the IC50 in test [1] fell in the range of 1000 to 10000 nM; in test [2], 5 to 50 nM; in test [3], 5 to 50 nM.

On to `Nc1ncc2n3c(nc(-c4ccc(C(=O)Nc5cc(C(F)(F)F)ccn5)cc4)c13)CCCNC(=O)CCC=CC2` [Example 134], for which the IC50 in test [1] is 1000 to 10000 nM; in test [2] it was 5 to 50 nM; in test [3] it was 5 to 50 nM.

In the case of `Nc1ncc2c3c1c(-c1ccc(C(=O)Nc4cc(C(F)(F)F)ccn4)cc1)nn3[C@@H]1CCC[C@H](C1)C(=O)NCCC/C=C\C2` [Example 84b], the IC50 is 100 to 1000 nM in test [1], 5 to 50 nM in test [2] and less than 5 nM in test [3].
